Marks after values point to notes of the source that are not given here.
Columns and labels:
[1] = system: GV oocytes from 7-8-week-old CF1 mice; assay: In vitro maturation (IVM) of GV oocytes from young CF1 mice, metaphase II egg karyotyping (chromosome staining only); type: cell-based, mouse
Description: Immature mouse oocytes (a.k.a. “GV oocytes” for the presence of intact germinal vesicle) from young CF1 mice (7-8 weeks of age) were cultured in medium (control) or medium containing 5 mM DFMO (Garcia-Faroldi et al., 2009).
All metaphase II eggs were subjected to karyotype analyses and counted spreads that contained 18 or more chromosomes and in which all chromosomes were close together, to eliminate over-spread karyotypes. Only hyperploid eggs, those containing 21 or more chromosomes, were considered aneuploid, to avoid artifacts due to loss of chromosomes during preparation of chromosome spreads (Koehler et al., 2006). In this set of experiments, in which only DNA staining was employed, hyperploid oocytes that contained extra whole chromosomes (dyads) were not distinguished from those that contained separated sister(s), because it is often difficult to differentiate a small chromosome dyad and a single sister in telocentric chromosomes such as in mouse.
Metaphase II eggs were karyotyped with chromosome staining only. N: total number of interpretable metaphase II spreads, with 18 or more chromosomes. Hypoploid: 18-19 chromosomes. Euploid: 20 chromosomes. Hyperploid: 21 chromosomes.
Mice were euthanized by cervical dislocation 44-46 h after they were primed with 5 IU equine chorionic gonadotropin (eCG) intraperitonally. […] Ovaries were immediately removed and minced in M2 medium (Sigma; unless otherwise indicated, other chemicals used in this study were also purchased from Sigma) to release oocytes. Oocytes with a clear germinal vesicle (GV) were used for in vitro maturation (IVM) for 17 hours in IVM medium (αMEM medium supplemented with 5% fetal bovine serum and 1 mM L-glutamine) overlaid with mineral oil.
Chromosome spread was carried out according to Hodges and Hunt (Hodges & Hunt, 2002) with minor modifications. In brief, oocytes or 2-cell embryos were collected in M2 medium. The zona pellucida was removed by treatment with 0.5 units/μl pronase at 37° C. for 20 sec. Zona-free oocytes/embryos were rinsed in M2 medium to detach polar bodies. The oocytes/embryos were individually plated onto glass slides (1-10 oocytes/embryos per slide) predipped in the fixative (prepared weekly and stored at 4° C.) containing 1% paraformaldehyde (w/v), 0.15% Triton X-100 (v/v), and 3 mM dithiothreitol, pH 9.2. Slides were kept overnight in moist boxes at room temperature. The slides were then rinsed in 0.5% Kodak Flo (Eastman Kodak Company, Rochester, N.Y.) solution and air-dried. The slides were incubated in 1:200 diluted human anti-centromere serum (Immunovision, Springdale, Ark.) in PBS containing 1% BSA overnight at 4° C., in 1:300 diluted secondary antibody (goat anti-human) conjugated with rhodamine (Jackson ImmunoResearch) in PBS-BSA for 1 h at room temperature, and 0.1% SYTOX green (Invitrogen, Eugene, Oreg.) in PBS for 30 min at room temperature. To avoid bias, the slides were coded by a colleague before being examined by an investigator using epifluorescence microscopy and photographed. Decoding was done after karyotypes were tabulated.

[2] = system: young (7-8 weeks) CF1 mice; assay: DFMO in mouse drinking water, karyotyping of oviduct-derived metaphase II eggs; type: in vivo
Description: The effect of DFMO on egg aneuploidy in vivo was also examined. […] Oviduct-derived metaphase II eggs, from control mice and DFMO treated mice, were subjected to karyotype analyses. In these and all subsequent egg karyotype analyses, anti-CREST antibodies were used to label centromeres (Hodges & Hunt, 2002), in addition to DNA staining. This modification allowed unambiguous identification of single sister chromatid(s) in metaphase II eggs, termed premature separation of sister chromatids (PSSC), the predominant form of mouse egg aneuploidies found in this study (see Table 3).
Hypoploid: 18-19 dyads. Euploid: 20 dyads. Hyperploid: 21 or 22 dyads. […] Aneuploid: 2×hyperploid+PSSC. Detailed breakdowns are in Table 7.
In order to collect mature (metaphase II) oocytes in vivo (ovulation experiments) each mouse was injected with 5 IU human chorionic gonadotropin (hCG) intraperitoneally 44-46 h after eCG priming. The animals were euthanized 16-18 h after hCG injection and MII eggs were flushed out of oviducts in M2 medium and subjected to karyotype analyses as described below. For mice that were treated with 1% DFMO in drinking water, the drugs were present until the time of euthanization (see FIG. 4 for details).
(§1) Decoding was done after karyotypes were tabulated.

[3] = system: GV oocytes from young hybrid F1 females (C57BL/6 x SPRET/Ei); assay: IVM of GV oocytes from young hybrid F1 females, metaphase II egg karyotyping; type: cell-based, mouse; details: 17 h IVM, 5 mM DFMO
Description: Table 8 DFMO increases the egg aneuploidy rate of young hybrid F1 females. GV oocytes isolated from young (7-8 weeks) hybrid F1 females, via crossing C57BL/6 females and SPRET/Ei males, were incubated for 17 h in αMEM (control) or αMEM containing 5 mM DFMO. […] Hypoploid: 18-19 dyads. Euploid: 20 dyads. Hyperploid: 21 or 22 dyads. […] Aneuploid: 2×hyperploid+PSSC. Detailed breakdowns are in Table 9.
Two other mouse models were additionally used. First, DFMO was tested as a potential treatment to […] egg aneuploidy in the hybrid F1 females that has a high baseline aneuploidy rate similar to human (Koehler et al., 2006).
as §1

[4] = system: 2-cell embryos of young CF1 mice; assay: DFMO in mouse drinking water prior to mating, 2-cell embryo karyotyping; type: in vivo
Description: Table 10 DFMO in mouse drinking water increases hyperploid 2-cell embryos. Young (7-8 weeks) CF1 mice were treated with regular water (control), or 1% DFMO drinking water for 48 h, prior to mating (see FIG. 5 for details). Embryos (2-cell) were isolated and subjected to karyotype analyses. N: Total interpretable 2-cell embryos. Euploid: 40 chromosomes in each of the two blastomeres, or 40 chromosomes in one blastomere with the other blastomere having less than 40 chromosomes or uninterpretable/lost. Hypoploid: 39 chromosomes in each of the two blastomeres, or 39 in one blastomere with the other less than 39 or uninterpretable/lost. Hyperploid: 41 chromosomes in at least one blastomere (we found no 42 or more chromosomes in this study). Detailed breakdowns are in Table 11.
To produce 2-cell embryos, mice were sequentially injected with eCG and hCG, as above for ovulation. After hCG injection, the females were caged singly with fertile young males overnight. For mice that were treated with 1% DFMO, the drug was withdrawn, and normal water resumed, at the time of hCG injection (see […] for details). The females were separated from the males in the next morning (day 1 post coital or p.c.). Females were euthanized in the late morning on day 2 p.c., and the embryos were collected by flushing the oviducts with M2 medium. After three rinses in KSOM medium, the embryos were cultured 17 h in KSOM containing 0.02 μg/ml colchicine to cause metaphase arrest of the 2-cell embryos.
as §1

ovarian ODC = biological target: T1, ovarian ODC (Mus musculus, UniProt P00860); assay: Ovarian ODC activity assay; type: in vivo; details: 1% DFMO in drinking water, hCG-stimulated 8-week-old mice
T1 construct: The ovarian homogenates were centrifuged at 16,000×g for 10 min; Supernatants were applied to ODC assays; from tissue; host or cells: mouse ovary (C57BL/6, 8 weeks old, hCG-stimulated), homogenate supernatant
T1 sequence (P00860 1-461): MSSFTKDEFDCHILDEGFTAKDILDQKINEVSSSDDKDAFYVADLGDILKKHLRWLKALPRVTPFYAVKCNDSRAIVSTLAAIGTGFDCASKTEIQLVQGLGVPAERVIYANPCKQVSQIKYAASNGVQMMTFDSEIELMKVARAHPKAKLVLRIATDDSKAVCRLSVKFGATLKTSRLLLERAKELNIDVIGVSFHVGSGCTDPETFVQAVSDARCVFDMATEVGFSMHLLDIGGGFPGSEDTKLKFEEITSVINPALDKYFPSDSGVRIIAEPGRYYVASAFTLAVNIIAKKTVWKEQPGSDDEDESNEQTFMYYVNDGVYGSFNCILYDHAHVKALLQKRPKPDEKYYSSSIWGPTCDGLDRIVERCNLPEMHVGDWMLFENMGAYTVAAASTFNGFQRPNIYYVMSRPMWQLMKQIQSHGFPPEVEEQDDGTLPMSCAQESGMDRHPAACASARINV
Description: After 44-46 h eCG priming, or 6 h following the subsequent hCG injection, the ovaries were collected into Eppendorf tubes and frozen at −80° C. immediately till use. The ovaries were weighed and minced with optical scissors. Lysis buffer (25 mM Tris/HCl pH 7.2, 2 mM dithiothreitol, 0.1 mM EDTA, 0.25 M sucrose, 0.1% Triton X-100 (v/v); modified from Bastida et al. (Bastida et al., 2005) was added 25 μL per mg ovarian tissues and the resulting suspension homogenized by sonication (Fisher Sonic Demembrator, New York, USA) for 20 seconds thrice. The ovarian homogenates were centrifuged at 16,000×g for 10 min. Supernatants were applied to ODC assays (Zhou et al., 2009) in microtiter plates, each well containing 50 μL of lysate, plus 0.1 mM pyridoxyl-5-phosphate and 0.5 μCi (57.1 mCi/mmol) of 14C-labeled ornithine (PerkinElmer, Boston, Mass.). The wells were tightly covered with 3MM paper pre-wet in freshly prepared water-saturated Ba(OH)2. The wells were incubated 1 h at 37° C. ^14CO2 released from decarboxylation reaction formed Ba^14CO3 precipitates on filter. […] The Storage phosphor screen was then scanned on Typhoon™ imaging system (GE Healthcare Life Sciences), resulting in digital images that were then quantified by Image Quant5.2 (GE Healthcare Life Sciences). ODC activity is expressed as relative light intensity in arbitrary units.

ovarian polyamines = assay: Ovarian polyamine quantification by ion chromatography; type: in vivo, mouse; details: 1% DFMO in drinking water for 48 hours up to sacrifice
Description: A Dionex ion chromatography system was used to analyze polyamines during ovulation. This system employs an online conductivity detector coupled with an anion suppressor such that only cations are detected. Ovaries were extracted in 5% trichloric acid (TCA) followed by extraction with diethyl ether. The TCA extracts were diluted in water before being applied to the ion chromatography system.
Polyamines from ovarian samples were determined by ion chromatography (IC) system (Rey and Pohl, 2003. J. Chromatography A 997:199-206). Ovaries were collected immediately after animal sacrifice and stored at −80° C. until use. The samples were thawed and minced, and then 5% trichloroacetic acid (TCA) was added (20 μl/mg). The samples were ultra-sonicated 30 seconds thrice. After centrifugation, the supernatants were extracted twice with diethyl ether. The mouse blood was collected in a tube containing 1 iu/ml heparin (LEO). After centrifugation, the supernatant (plasma) was collected and 10% TCA was added by 1:1 in volume. These plasma samples were extracted twice with diethyl ether, as noted above. The extracts were diluted 10 times in water for polyamine analysis on Dionex Ion ICS-2100 system (Thermo scientific, Dionex, Sunnyvale, Calif., USA) according to the manufacture instructions, using the support software of PeakNet 6.40 SP5 Build 778.

[5] = number of ovulated MII eggs, 1% DFMO drinking water 48 h
[6] = number of 2-cell embryos, 1% DFMO drinking water 48 h prior to mating
[7] = percent of interpretable 2-cell embryos, 1% DFMO drinking water 48 h

ovarian ODC activity (ovarian ODC): efficiently inhibited
SMILES: NCCC[C@](N)(C(=O)O)C(F)F [DFMO, α-difluoromethylornithine]
first polar body emission ([1]; 5 mM DFMO in IVM medium, 776/945): 82%
% Hyperploidy ([1]; 17 h IVM, 5 mM): 4.9 * %
Hypoploid 18 ([1]; number of MII eggs with 18 chromosomes, 17 h IVM, 5 mM each agent in αMEM): 2
Hypoploid 19 ([1]; number of MII eggs with 19 chromosomes, 17 h IVM, 5 mM): 18
Eupoloid 20 ([1]; number of MII eggs with 20 chromosomes, 17 h IVM, 5 mM): 175
Hyperploid 21 ([1]; number of MII eggs with 21 chromosomes, 17 h IVM, 5 mM): 10
Hyperploid 22 ([1]; number of MII eggs with 22 chromosomes, 17 h IVM, 5 mM): 0
% Hyperploidy ([2]; 1% DFMO drinking water 48 h): 1.1** %
number of MII eggs collected from the oviducts ([2]; 1% DFMO drinking water, n=37): 29.3 /mouse
% Aneuploidy ([2]; Aneuploid: 2×hyperploid+PSSC, 1% DFMO drinking water 48 h): 7.7%
PSSC ([2]; number of eggs with separated sister chromatid(s), 1% DFMO drinking water 48 h): 14*
Eupoloid 20 [2, 5]: 191
Hyperploid 21 [2, 5]: 3
Hyperploid 22 [2, 5]: 0
Hypoploid 18 [2, 5]: 12
Hypoploid 19 [2, 5]: 41
% Hyperploidy [3]: 2.5** %
% Aneuploidy ([3]; Aneuploid: 2×hyperploid+PSSC): 22.5%
Euploid 20 ([3]; number of MII eggs): 50
Hyperploid 21 ([3]; number of MII eggs): 2
Hyperploid 22 ([3]; number of MII eggs): 0
Hypoploid 18 ([3]; number of MII eggs): 5
Hypoploid 19 ([3]; number of MII eggs): 9
PSSC ([3]; number of MII eggs): 14*
Euploid 40 [4, 6]: 38
Hyperploid 41 [4, 6]: 5
Hypoploid 39 [4, 6]: 5
Euploid 40 [4, 7]: 79.2%
Hyperploid 41 [4, 7]: 10.4%
Hypoploid 39 [4, 7]: 10.4%
hCG-mediated ovarian putrescine increase (ovarian polyamines): completely eliminated
